Target: CK2A1 (CK2α/β) (Homo sapiens, UniProt P68400)
Experiment: CK2 kinase assay, CK2A1 (CK2α/β)
Format: biochemical
Conditions: Table A; read-out: CK2A1 (CK2α/β) (IC50)

Chain of CK2A1 (CK2α/β) (P68400 whole entry, species assumed): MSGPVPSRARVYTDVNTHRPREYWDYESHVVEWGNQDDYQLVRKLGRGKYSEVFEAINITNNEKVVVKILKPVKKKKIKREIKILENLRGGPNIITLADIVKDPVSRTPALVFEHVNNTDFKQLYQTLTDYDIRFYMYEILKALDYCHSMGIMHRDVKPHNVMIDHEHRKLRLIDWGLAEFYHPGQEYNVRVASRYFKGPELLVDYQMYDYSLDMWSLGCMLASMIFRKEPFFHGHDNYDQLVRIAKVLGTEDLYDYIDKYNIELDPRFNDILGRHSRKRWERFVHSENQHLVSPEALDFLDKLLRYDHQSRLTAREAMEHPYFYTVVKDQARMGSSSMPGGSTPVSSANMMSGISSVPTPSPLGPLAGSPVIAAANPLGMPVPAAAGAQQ
Chain of CK2A1 (CK2α/β) (P67870 whole entry partner, species assumed): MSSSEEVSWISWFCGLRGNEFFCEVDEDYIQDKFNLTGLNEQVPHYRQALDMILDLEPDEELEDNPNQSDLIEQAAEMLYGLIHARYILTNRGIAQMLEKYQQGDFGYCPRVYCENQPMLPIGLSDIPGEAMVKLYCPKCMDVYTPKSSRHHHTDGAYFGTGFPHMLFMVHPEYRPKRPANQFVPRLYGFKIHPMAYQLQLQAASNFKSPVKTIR

Row | Structure (SMILES) | IC50 [nM]
1 | N#Cc1cc(Nc2nc(NC3CC3)c3ncc(C#N)n3n2)c(Cl)c(N2CCN(C(=O)C3CC3)CC2)c1 [Example 74, 2-((2-chloro-5-cyano-3-(4-(cyclopropylcarbonyl)-1-piperazinyl)phenyl)amino)-4-(cyclopropylamino) imidazo[2,1-f][1,2,4] triazine-7-carbonitrile] | 0.55
2 | CC(=O)N1CC2(CCN(c3cc(C#N)cc(Nc4nc(NC5CC5)c5ncc(C#N)n5n4)c3Cl)CC2)C1 [Example 793, 2-((3-(2-acetyl-2,7-diazaspiro[3.5]nonan-7-yl)-2-chloro-5-cyanophenyl)amino)-4-(cyclopropylamino)imidazo[2,1-f][1,2,4]triazine-7-carbonitrile] | 0.81
3 | CC(=O)c1cc(C#N)cc(Nc2nc(NC3CC3)c3ncc(C#N)n3n2)c1Cl [Example 675, 2-((3-acetyl-2-chloro-5-cyanophenyl)amino)-4-(cyclopropylamino)imidazo[2,1-f][1,2,4]triazine-7-carbonitrile] | 0.24
4 | N#CCC1(N2CCC(c3cc(C#N)cc(Nc4nc(NC5CC5)c5ncc(C#N)n5n4)c3Cl)CC2)COC1 [Example 378, 2-((2-chloro-5-cyano-3-(1-(3-(cyanomethyl)oxetan-3-yl)piperidin-4-yl)phenyl)amino)-4-(cyclopropylamino)imidazo[2,1-f][1,2,4]triazine-7-carbonitrile] | 0.81
5 | COC(=O)N(C)[C@@H]1CCN(c2cc(C#N)cc(Nc3nc(NC4CC4)c4ncc(C#N)n4n3)c2Cl)C[C@H]1O (racemic) [Example 187, (+/−)-methyl ((3R,4R)-1-(2-chloro-5-cyano-3-((7-cyano-4-(cyclopropylamino)imidazo[2,1-f][1,2,4]triazin-2-yl)amino)phenyl)-3-hydroxypiperidin-4-yl)(methyl)carbamate] | 0.94
6 | N#Cc1cc(Nc2nc(NC3CC3)c3ncc(C#N)n3n2)c(Cl)c(OCC2CNCCO2)c1 (stereo not drawn) [Example 441, 2-((2-chloro-5-cyano-3-(morpholin-2-ylmethoxy)phenyl)amino)-4-(cyclopropylamino)imidazo[2,1-f][1,2,4]triazine-7-carbonitrile] | 1.17
7 | N#Cc1cc(NC(=O)CN2CCOCC2)c(Cl)c(Nc2nc(NC3CC3)c3ncc(C#N)n3n2)c1 [Example 621, N-(2-chloro-5-cyano-3-((7-cyano-4-(cyclopropylamino)imidazo[2,1-f][1,2,4]triazin-2-yl)amino)phenyl)-2-morpholinoacetamide] | 1.62
8 | COC(C)CN1CCN(c2cc(C#N)cc(Nc3nc(NC4CC4)c4ncc(C#N)n4n3)c2Cl)CC1 (stereo not drawn) [Example 596, 2-({2-chloro-5-cyano-3-[4-(2-methoxypropyl)piperazin-1-yl]phenyl}amino)-4-(cyclopropylamino)imidazo [2,1-f][1,2,4]triazine-7-carbonitrile] | 0.6
9 | N#Cc1cc(Nc2nc(NC3CC3)c3ncc(C#N)n3n2)c(Cl)c(C(O)C2CCNCC2)c1 (stereo not drawn) [Example 654, 2-((2-chloro-5-cyano-3-(hydroxy(piperidin-4-yl)methyl)phenyl)amino)-4-(cyclopropylamino)imidazo[2,1-f][1,2,4]triazine-7-carbonitrile] | 2.68
10 | CN1CCN(C(CO)CCc2cc(C#N)cc(Nc3nc(NC4CC4)c4ncc(C#N)n4n3)c2Cl)CC1 (stereo not drawn) [Example 723, 2-({2-chloro-5-cyano-3-[4-hydroxy-3-(4-methylpiperazin-1-yl)butyl]phenyl}amino)-4-(cyclopropylamino)imidazo [2,1-f][1,2,4]triazine-7-carbonitrile] | 1.92
11 | CCNc1nc(Nc2cc(C#N)cc(N3CCN([C@H]4C[C@H](O)C4)CC3)c2Cl)nn2c(C#N)cnc12 [Example 613, 2-[(2-chloro-5-cyano-3-{4-[(1r,3r)-3-hydroxycyclobutyl]piperazin-1-yl}phenyl)amino]-4-(ethylamino)imidazo [2,1-f][1,2,4]triazine-7-carbonitrile] | 1.62
12 | CN1CCN(c2cc(C#N)cc(Nc3nc(NC4CC4)c4ncc(C#N)n4n3)c2Cl)CC1 [Example 1, 2-((2-chloro-5-cyano-3-(4-methyl-1-piperazinyl)phenyl)amino)-4-(cyclopropylamino)imidazo[2,1-f][1,2,4]triazine-7-carbonitrile] | 0.9
13 | CC(=O)N1CCOC(c2cc(C#N)cc(Nc3nc(NC4CC4)c4ncc(C#N)n4n3)c2Cl)C1 (racemic) [Example 695, (+/−)-2-((3-(4-acetylmorpholin-2-yl)-2-chloro-5-cyanophenyl)amino)-4-(cyclopropylamino)imidazo[2,1-f][1,2,4]triazine-7-carbonitrile] | 3.7
14 | COC(=O)N1CCC2CCN(c3cc(C#N)cc(Nc4nc(NC5CC5)c5ncc(C#N)n5n4)c3Cl)CC21 (racemic) [Example 458, (+/−)-methyl 6-(2-chloro-5-cyano-3-((7-cyano-4-(cyclopropylamino)imidazo[2,1-f][1,2,4]triazin-2-yl)amino)phenyl)octahydro-1H-pyrrolo[2,3-c]pyridine-1-carboxylate] | 16.4

More lines, now with the values ahead:

Row | IC50 [nM] | Structure (SMILES)
15 | 1.99 | CC(C)(CO)C(=O)N1CC(N2CCN(c3cc(C#N)cc(Nc4nc(NC5CC5)c5ncc(C#N)n5n4)c3Cl)CC2)C1 [Example 494, 2-[(2-chloro-5-cyano-3-{4-[1-(3-hydroxy-2,2-dimethylpropanoyl)azetidin-3-yl]piperazin-1-yl}phenyl)amino]-4-(cyclopropylamino)imidazo[2,1-f][1,2,4]triazine-7-carbonitrile]
16 | 4.37 | CC(CC(C)c1cc(Cl)c(Nc2nc(NC3CC3)c3ncc(C#N)n3n2)cc1C#N)NCCC(F)(F)F (single isomer, unassigned) [Example 735, 2-[(2-chloro-5-cyano-4-{4-[(3,3,3-trifluoropropyl)amino]pentan-2-yl}phenyl)amino]-4-(cyclopropylamino)imidazo [2,1-f][1,2,4]triazine-7-carbonitril]
17 | 0.66 | CN1CCN(C(=O)N[C@@H]2CCN(c3cc(C#N)cc(Nc4nc(NC5CC5)c5ncc(C#N)n5n4)c3Cl)C[C@H]2O)CC1 (racemic) [Example 182, (+/−)-N-((3R,4R)-1-(2-chloro-5-cyano-3-((7-cyano-4-(cyclopropylamino)imidazo[2,1-f][1,2,4]triazin-2-yl)amino)phenyl)-3-hydroxypiperidin-4-yl)-4-methylpiperazine-1-carboxamide]
18 | 0.78 | CC(C)(O)CN1CC(N2CCC(c3cc(C#N)cc(Nc4nc(NC5CC5)c5ncc(C#N)n5n4)c3Cl)CC2)C1 [Example 324, 2-((2-chloro-5-cyano-3-(1-(1-(2-hydroxy-2-methylpropyl)-3-azetidinyl)-4-piperidinyl)phenyl)amino)-4-(cyclopropylamino)imidazo [2,1-f][1,2,4]triazine-7-carbonitrile]
19 | 0.92 | N#Cc1cc(Nc2nc(NC3CC3)c3ncc(C#N)n3n2)c(Cl)c(N2CCN(C(=O)CC3CCOCC3)CC2)c1 [Example 95, 2-((2-chloro-5-cyano-3-(4-(tetrahydro-2H-pyran-4-ylacetyl)-1-piperazinyl)phenyl)amino)-4-(cyclopropylamino) imidazo[2,1-f][1,2,4] triazine-7-carbonitrile]
20 | 2.34 | N#Cc1cc(Nc2nc(NC3CC3)c3ncc(C#N)n3n2)c(Cl)c([C@H]2CCC[C@@H](N3CC(F)C3)C2)c1 [Example 726, 2-({2-chloro-5-cyano-3-[(1S,3R)-3-(3-fluoroazetidin-1-yl)cyclohexyl]phenyl}amino)-4-(cyclopropylamino)imidazo [2,1-f][1,2,4]triazine-7-carbonitrile]
21 | 4.2 | CC1(C(O)c2cc(C#N)cc(Nc3nc(NC4CC4)c4ncc(C#N)n4n3)c2Cl)COC1 (stereo not drawn) [Example 657, 2-((2-chloro-5-cyano-3-(hydroxy(3-methyloxetan-3-yl)methyl)phenyl)amino)-4-(cyclopropylamino)imidazo[2,1-f][1,2,4]triazine-7-carbonitrile]
22 | 1.1 | CC(C)(CO)NCC(O)c1cc(C#N)cc(Nc2nc(NC3CC3)c3ncc(C#N)n3n2)c1Cl (stereo not drawn) [Example 693, 2-((2-chloro-5-cyano-3-(1-hydroxy-2-((1-hydroxy-2-methylpropan-2-yl)amino)ethyl)phenyl)amino)-4-(cyclopropylamino)imidazo[2,1-f][1,2,4]triazine-7-carbonitrile]
23 | 6 | COC(=O)N[C@H]1CCN(c2cc(C#N)cc(Nc3nc(NC4CC4)c4ncc(C#N)n4n3)c2Cl)C[C@H]1N(C)CC#N [Example 766, methyl N-[(3R,4S)-1-(2-chloro-5-cyano-3-{[7-cyano-4-(cyclopropylamino)imidazo [2,1-f][1,2,4]triazin-2-yl]amino}phenyl)-3-[(cyanomethyl)(methyl)amino]piperidin-4-yl]carbamate]
24 | 1.78 | C[C@H](O)CN1CC(N2CCC(c3cc(C#N)cc(Nc4nc(NC5CC5)c5ncc(C#N)n5n4)c3Cl)CC2)C1 [Example 322, 2-((2-chloro-5-cyano-3-(1-(1-((2S)-2-hydroxypropyl)-3-azetidinyl)-4-piperidinyl)phenyl)amino)-4-(cyclopropylamino)imidazo [2,1-f][1,2,4]triazine-7-carbonitrile]
25 | 1.91 | COC1CN(CCCc2cc(Cl)c(Nc3nc(NC4CC4)c4ncc(C#N)n4n3)cc2C#N)C1 [Example 570, 2-((2-chloro-5-cyano-4-(3-(3-methoxyazetidin-1-yl)propyl)phenyl)amino)-4-(cyclopropylamino)imidazo[2,1-f][1,2,4]triazine-7-carbonitrile]
26 | 0.43 | N#Cc1cc(Nc2nc(NC3CC3)c3ncc(C#N)n3n2)c(Cl)c(N2CCN(C3CNC3)CC2)c1 [Example 612, 2-({3-[4-(azetidin-3-yl)piperazin-1-yl]-2-chloro-5-cyanophenyl}amino)-4-(cyclopropylamino)imidazo [2,1-f][1,2,4]triazine-7-carbonitrile]
27 | 0.95 | [2H]C1(N2CCC(c3cc(C#N)cc(Nc4nc(NC5CC5)c5ncc(C#N)n5n4)c3Cl)CC2)COC1 [Example 223, 2-((2-chloro-5-cyano-3-(1-(3-~2~H)-3-oxetanyl-4-piperidinyl)phenyl)amino)-4-(cyclopropylamino)imidazo[2,1-f][1,2,4]triazine-7-carbonitrile]

From patent US9273057B2 (Bristol-Myers Squibb Company, priority 2012, dated 2016)
